# Read-outs that look alike come from different tables or passages of the source.
# Key:
# [1] = Mouse microsomal stability assay; format: in vitro ADME; conditions: pH 7.4; mouse liver microsomes, 37° C.
# Procedure: In vitro assays were performed to evaluate the metabolic stability of test items in liver microsomes originating from mouse. Preparation of working standards of test items: Working solutions were prepared for each calibration level by appropriate dilution of the corresponding stock solution, depending on each compound's solubility in acetonitrile or acetonitrile/water. Calibration standards were prepared by spiking 196 μl standard matrix with 4 μl of the corresponding working solution. The standard matrix consists of 0.15 mg/ml of microsomal protein in phosphate buffer (100 mM pH 7.4), the final standard solutions contain 2% acetonitrile. The samples and standard solutions were extracted with ethyl acetate, isolation of the compounds was performed by addition of 600 μl ethyl acetate containing the internal standard (0.1 μM) to 200 μl sample and calibration standard. After vigorously shaking (10 minutes) and centrifugation (5000 g) the aqueous phase was separated by freezing in an acetone/dry ice bath and the organic phase is evaporated to dryness using a vacuum centrifuge. Samples were reconstituted in 200 μl acetonitrile/water mix (1:1 v/v) and subsequently subjected to LC-MS/MS. The incubation solution (180 μl) consisted of 90 μl of a microsomal suspension of 0.33 mg/ml of protein in phosphate buffer 100 mM pH 7.4 and 90 μl NADP-regenerating system. The reaction was initiated by the addition of 20 μl of test compound (in 20% acetonitrile) to the preincubated microsomes/buffer mix at 37° C. 200 μl samples were removed from the incubation after 0, 5, 10, and 30 minutes and processed for ethyl acetate extraction as described above. Negative controls using boiled microsomes (boiling water bath, 25 minutes) without regenerating system were run in parallel. The amount of compound in the samples is expressed as percentage of remaining compound compared to time point zero (=100%). These percentages were plotted against the corresponding time points. Intrinsic clearance (CLint) and half-life (t1/2) estimates were determined using the rate of parent disappearance and following formula (1) and (2). (1) CLint=(−k)×V×fu. (2) t1/2=In2/−k. Where CLint=intrinsic clearance [μl/min/mg protein], t1/2=half life [min], k=slope from the linear regression of log [test compound] versus time plot [1/min]. V=6666.7; fu=unbound fraction in the blood. Applying this protocol gave microsomal stabilities for examples and reference compounds as listed below in Table 9: […]
# [2] = Aqueous solubility assay, Protocol B, shake-flask method; format: physicochemical; conditions: aqueous buffer, 10 mM PBS buffer pH 7.4, 1% MeOH, room temperature, read-out: Aqueous solubility pH 7.4 (μM) (±standard deviation), shake-flask method
# Procedure: Protocol B, shake-flask method:
# Sample preparation: Sample and standard solution preparation is performed by mixing equal volumes of acetonitrile containing the internal standard (1 μM final concentration) with sample and calibration standard solutions (100 μl). After vigorously shaking (10 seconds) the samples are centrifuged (6000 g) for 5 minutes at 20° C. Aliquots of the particle-free supernatants are transferred to 200 μl sample vials and subsequently subjected to LC-MS/MS. Assay procedure: Test concentration was 100 μM in 10 mM PBS buffer pH 7.4 with a final MeOH concentration of 1%. The volume of the incubation solution was 500 μl. Depending on each compound's solubility in MeOH, the stock concentration and the incubation concentration was adapted. The test solutions in quadruplicates were shaken at 300 rpm over a 20 hours period at room temperature, followed by centrifugation at 20000 g for 30 minutes to separate the solid phase. 100 μl of particle free sample are added to 100 μl acetonitrile containing the internal standard. The aqueous solubility of the compounds was determined by measuring the concentration of the PBS buffer supernatant by HPLC-MS/MS.
# [3] = Aqueous solubility assay, Protocol A, nephelometry method; format: physicochemical; conditions: PBS with 5% DMSO, aqueous with cosolvent or surfactant or cyclodextrin, kinetic from dmso stock, PBS pH 7.4, 5% DMSO
# Procedure: Aqueous solubility of compounds was determined by nephelometry or by the shake-flask method as follows:
# Protocol A, nephelometry method:
# Solubility of compounds was measured in PBS (pH 7.4), 5% DMSO at 23° C. Nepheloskan Ascent (Thermo Electron Corporation) nephelometer was used for measurement of light scattering. Tested compounds were dissolved in DMSO to 10 mM. Prior to measurement the compounds were further diluted with PBS in the wells to final compound concentrations of 100, 70, 50, 35, 25, 17, 12 and <10 μg/ml.
# The plates were incubated at room temperature for 24 hours to reach equilibrium and the scattered light was measured. Assay validation: Aqueous solubility of acetylsalicylic acid was determined to validate the assay.
# The following compounds of Table 2 exemplify such solubility with “−−” meaning solubility<2 μM, “+” meaning 2 μM solubility 100 μM and “++” meaning solubility
# [4] = PAMPA permeability assay; format: in vitro ADME; conditions: % of compound found in the receiver compartment after 16 hours; PBS pH 7.4, 5% DMSO, 23° C.
# Procedure: Artificial membrane permeability was determined as follows: Tested compounds were dissolved to 10 mM in 100% DMSO. Permeability of compounds was measured in PBS (pH 7.4), 5% DMSO at 23° C. Safire (Tecan) plate reader was used for measurement the UV/Vis absorption. Protocol: Dilute stocks of tested compounds and controls with PBS to 1.67 mM and mix well by pipeitting, add 280 μl of PBS, 5% DMSO to acceptor plate, add 5 μl of 2% L-α-Phosphatidylcholine suspension in dodecane to the membrane of donor plate, Immediately add 98 μl of PBS to donor plate and make the sandwich with acceptor plate. Add 42 μl of tested compounds and controls dilutions to […], cover the plate, place into camera and incubate for 16 hours. Make the equilibrium plate, add 225 μl of PBS, 3,7% DMSO and 25 μl of tested compounds and controls dilutions to UV plate. After 16 hours pull the donor plate out and transfer 250 μl from acceptor plate to UV plate. Scan UV plate on Safire (Tecan) plate reader from […]. Permeability is reported in % of compound found in the receiver compartment after the incubation period.
# [5] = The Merck index, 10th edition; cited from earlier work
half-life [1] [min],microsomal CLint [1] [µL/min/mg],solubility at 20 h [2] [µM],"solubility at 24 h ([3]; 23° C., 24 hours, read-out: Aqueous solubility pH 7.4) [µM]",PAMPA Permeability [4] [%],"solubility at 24 h ([3]; 23 °C, at the day of experiment, read-out: Aqueous solubility (assay validation)) [µg/mL]",Compound,"Aqueous solubility, reported literature value [5]"
22,207,72.4,2 to 100,32,–,"CC(C)c1onc(-c2c(Cl)cccc2Cl)c1CCc1ccc(Oc2ccc(C(=O)O)cc2)cc1 [Compound A, reference compound]",–
–,–,–,–,–,> 100,"CC(=O)Oc1ccccc1C(=O)O [acetylsalicylic acid, reference compound]","at least 2,17 mg/ml"
